Experiments:
Assay in all cases: relative viability (nuclei count vs DMSO), 5 days (fraction); higher = more cells survive
[1] = compound: COCC[n+]1c2c(n(Cc3cnccn3)c1C)C(=O)c1ccccc1C2=O [YM155] + Cc1cc(Nc2cc(N3CCN(C)CC3)nc(Sc3ccc(NC(=O)C4CC4)cc3)n2)n[nH]1 [Tozasertib] (partner 0.1 µM)
Method in brief: (§1)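 Relative viability is defined as nuclei in treated wells over nuclei in vehicle wells. Duplicate plates were run and medians reported. Lung cancer cell lines in 1536-well plates were dosed by pin tool one day after seeding, with one drug or with a fixed anchor-drug dose plus five library-drug doses (not always all listed) in √10 steps, and nuclei were counted after 5 days.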

[2] = compound: CC(C)(C)c1cc(NC(=O)Nc2ccc(-c3cn4c(n3)sc3cc(OCCN5CCOCC5)ccc34)cc2)no1 [Quizartinib] + O=C(c1cc(Cc2n[nH]c(=O)c3ccccc23)ccc1F)N1CCN(C(=O)C2CC2)CC1 [Olaparib] (partner 8 µM)
Method in brief: as §1

[3] = compound: COCC[n+]1c2c(n(Cc3cnccn3)c1C)C(=O)c1ccccc1C2=O [YM155] + NC(=O)Nc1cc(-c2cccc(F)c2)sc1C(=O)N[C@H]1CCCNC1 [AZD7762] (partner 0.2 µM)
Method in brief: as §1

[4] = compound: COCC[n+]1c2c(n(Cc3cnccn3)c1C)C(=O)c1ccccc1C2=O [YM155] + O=C(c1cc(Cc2n[nH]c(=O)c3ccccc23)ccc1F)N1CCN(C(=O)C2CC2)CC1 [Olaparib] (partner 8 µM)
Method in brief: as §1

[5] = compound: COCC[n+]1c2c(n(Cc3cnccn3)c1C)C(=O)c1ccccc1C2=O [YM155] + Nc1nc2[nH]cc(CCc3ccc(C(=O)N[C@@H](CCC(=O)O)C(=O)O)cc3)c2c(=O)[nH]1 [Pemetrexed] (partner 0.2 µM)
Method in brief: as §1

[6] = compound: COCC[n+]1c2c(n(Cc3cnccn3)c1C)C(=O)c1ccccc1C2=O [YM155] + O=C(CCCCCCC(=O)Nc1ccccc1)NO [Vorinostat] (partner 1 µM)
Method in brief: as §1

Question: Which results are given for NCI-H1648?
Answer: relative viability ([1]; first compound 0.002 µM): 0.386; relative viability ([1]; first compound 0.006325 µM): 0.605; relative viability ([1]; first compound 0.02 µM): 0.586; relative viability ([1]; first compound 0.06325 µM): 0.427; relative viability ([2]; first compound 0.003162 µM): 0.985; relative viability ([2]; first compound 0.03162 µM): 0.604; relative viability ([2]; first compound 0.1 µM): 0.909; relative viability ([3]; first compound 0.006325 µM): 0.689; relative viability ([3]; first compound 0.02 µM): 0.557; relative viability ([3]; first compound 0.06325 µM): 0.634; relative viability ([4]; first compound 0.006325 µM): 1.06; relative viability ([4]; first compound 0.02 µM): 0.6; relative viability ([4]; first compound 0.06325 µM): 0.762; relative viability ([5]; first compound 0.006325 µM): 0.97; relative viability ([5]; first compound 0.02 µM): 0.702; relative viability ([5]; first compound 0.06325 µM): 0.804; relative viability ([6]; first compound 0.006325 µM): 0.386; relative viability ([6]; first compound 0.02 µM): 0.565; relative viability ([6]; first compound 0.06325 µM): 0.301

Source: the supplement of paper PMC10307832
